From ChEMBL document CHEMBL3885861, “Open TG-GATES”

Organism: Rattus norvegicus
Assay: Open TG-GATES - Regimen: Single
Format: toxicity, organism-based, Sprague-Dawley
Set-up: regimen Single, gender Male, age 6 weeks
Details: in vivo, po, 0 mg/kg, route gavage, dose level Control; for APTT / Bas / Eos / Fbg / Hb / Ht / Lym / MCH / MCHC / MCV / Mono / Neu / PT / Plat / RBC / Ret / WBC: tissue Blood; for KIDNEY_L / KIDNEY_R / KIDNEY_TOTAL: tissue Kidney; for LIVER: tissue Liver; for A/G / ALP / ALT / AST / BUN / CRE / Ca / Cl / DBIL / GLC / IP / K / LDH / Na / PL / RALB / TBIL / TC / TG / TP / gamma-GTP: tissue Plasma

## CC1=C(CC(=O)O)c2cc(F)ccc2/C1=C\c1ccc([S+](C)[O-])cc1 (configuration not stated)
3 h
  TERMINAL_BW: 203.6 g
  APTT: 20.8 s
  Bas: 0.2%
  Eos: 0.8%
  Fbg: 275 mg/dL
  Hb: 13.9 g/dL
  Ht: 42%
  Lym: 77.4%
  MCH: 21.5 pg
  MCHC: 33.1%
  MCV: 65.1 fL
  Mono: 2.8%
  Neu: 18.6%
  PT: 14.2 s
  Plat: 116.8 x10_4/uL
  RBC: 645.6 x10_4/ul
  Ret: 7.9%
  WBC: 80.3 x10_2/uL
  KIDNEY_L: 0.8 g
  KIDNEY_R: 0.9 g
  KIDNEY_TOTAL: 1.7 g
  LIVER: 9.3 g
  A/G: 0.9
  ALP: 1495.6 IU/L
  ALT: 41.6 IU/L
  AST: 79.8 IU/L
  BUN: 10.4 mg/dL
  CRE: 0.2 mg/dL
  Ca: 10.9 mg/dL
  Cl: 105.4 meq/L
  DBIL: 0.01 mg/dL
  GLC: 168 mg/dL
  IP: 8.7 mg/dL
  K: 3.9 meq/L
  LDH: 79.6 IU/L
  Na: 142.4 meq/L
  PL: 150.6 mg/dL
  RALB: 2.6 g/dL
  TBIL: 0.024 mg/dL
  TC: 80.8 mg/dL
  TG: 65.4 mg/dL
  TP: 5.4 g/dL
  gamma-GTP: 1 IU/L
6 h
  TERMINAL_BW: 197.1 g
  APTT: 17.8 s
  Bas: 0%
  Eos: 1%
  Fbg: 281.8 mg/dL
  Hb: 13.8 g/dL
  Ht: 42.2%
  Lym: 78.6%
  MCH: 20.7 pg
  MCHC: 32.8%
  MCV: 62.9 fL
  Mono: 2.8%
  Neu: 17%
  PT: 14.2 s
  Plat: 121.9 x10_4/uL
  RBC: 670.4 x10_4/ul
  Ret: 7.7%
  WBC: 78.4 x10_2/uL
  KIDNEY_L: 0.8 g
  KIDNEY_R: 0.9 g
  KIDNEY_TOTAL: 1.7 g
  LIVER: 8 g
  A/G: 0.9
  ALP: 1387.6 IU/L
  ALT: 38.2 IU/L
  AST: 72 IU/L
  BUN: 7.4 mg/dL
  CRE: 0.2 mg/dL
  Ca: 10.6 mg/dL
  Cl: 106.4 meq/L
  DBIL: 0.002 mg/dL
  GLC: 171.8 mg/dL
  IP: 9.5 mg/dL
  K: 4.1 meq/L
  LDH: 71.6 IU/L
  Na: 142 meq/L
  PL: 142 mg/dL
  RALB: 2.5 g/dL
  TBIL: 0.03 mg/dL
  TC: 83.6 mg/dL
  TG: 37.4 mg/dL
  TP: 5.2 g/dL
  gamma-GTP: 1.6 IU/L
9 h
  TERMINAL_BW: 198.3 g
  APTT: 16.6 s
  Bas: 0%
  Eos: 0.8%
  Fbg: 308.8 mg/dL
  Hb: 13.9 g/dL
  Ht: 42.5%
  Lym: 81.6%
  MCH: 21.1 pg
  MCHC: 32.7%
  MCV: 64.8 fL
  Mono: 2%
  Neu: 15%
  PT: 13.8 s
  Plat: 120.2 x10_4/uL
  RBC: 655.8 x10_4/ul
  Ret: 7.7%
  WBC: 58.8 x10_2/uL
  KIDNEY_L: 0.9 g
  KIDNEY_R: 0.9 g
  KIDNEY_TOTAL: 1.9 g
  LIVER: 7.9 g
  A/G: 1
  ALP: 1678 IU/L
  ALT: 36.8 IU/L
  AST: 70 IU/L
  BUN: 10 mg/dL
  CRE: 0.2 mg/dL
  Ca: 10.6 mg/dL
  Cl: 107.8 meq/L
  DBIL: 0.004 mg/dL
  GLC: 182 mg/dL
  IP: 10.1 mg/dL
  K: 4.3 meq/L
  LDH: 65.6 IU/L
  Na: 142.4 meq/L
  PL: 142 mg/dL
  RALB: 2.6 g/dL
  TBIL: 0.03 mg/dL
  TC: 83 mg/dL
  TG: 47.6 mg/dL
  TP: 5.3 g/dL
  gamma-GTP: 1 IU/L
24 h
  TERMINAL_BW: 215.3 g
  APTT: 16 s
  Bas: 0%
  Eos: 1%
  Fbg: 292.8 mg/dL
  Hb: 13.7 g/dL
  Ht: 42.7%
  Lym: 77.6%
  MCH: 21 pg
  MCHC: 32.2%
  MCV: 65.2 fL
  Mono: 2.8%
  Neu: 18.2%
  PT: 13.7 s
  Plat: 140.1 x10_4/uL
  RBC: 654.6 x10_4/ul
  Ret: 7.3%
  WBC: 87.2 x10_2/uL
  KIDNEY_L: 0.9 g
  KIDNEY_R: 0.9 g
  KIDNEY_TOTAL: 1.8 g
  LIVER: 9.8 g
  A/G: 0.9
  ALP: 1542 IU/L
  ALT: 49 IU/L
  AST: 74 IU/L
  BUN: 13.2 mg/dL
  CRE: 0.2 mg/dL
  Ca: 11 mg/dL
  Cl: 106.4 meq/L
  DBIL: 0.01 mg/dL
  GLC: 182.6 mg/dL
  IP: 7.3 mg/dL
  K: 4.1 meq/L
  LDH: 75 IU/L
  Na: 142.2 meq/L
  PL: 153 mg/dL
  RALB: 2.7 g/dL
  TBIL: 0.02 mg/dL
  TC: 83.2 mg/dL
  TG: 82.2 mg/dL
  TP: 5.5 g/dL
  gamma-GTP: 1 IU/L
